Entries after “also recorded” stand apart in the source; their conditions may differ.
What was measured:
Mel-P3-Post [1] = test: JC1 staining for mitochondrial depolarisation; type: cell-based, human
Description: (§1) Cell lines: Mel-PX-Pre and Mel-PX-post represent cell lines derived from patient-X pre- and post-treatment with vemurafenib.

melanoma lines = test: Cell cycle arrest and apoptosis in matched pre and post melanoma cell lines; type: cell-based, human; details: B-Raf-mutant melanoma, listed as B-Raf inhibitor of Formula (I)
Procedure: The B-Raf inhibitor of Formula (I) was tested on the matched pre and post cell lines established from patients before treatment and after progression on vemurafenib treatment. […] Combining panobinostat with the B-Raf inhibitor of Formula (I), caused a synergistic increase in apoptosis in melanoma lines. The increase in apoptosis was also observed in the “post” cell lines which had previously acquired resistance to the B-Raf inhibitor, vemurafenib.

Mel-P3-Pre [2] = test: Cell cycle staining and sub-G1 analysis of dead cells (flow cytometry); type: cell-based, human; details: for CELL CYCLE AVG G1 / CELL CYCLE AVG G2/M / CELL CYCLE AVG S / sub-G1 %: Mel-P3-Pre, 48 hours
Description: as §1

Mel-P3-Post [3] = test: as above; type: cell-based, human; details: for CELL CYCLE AVG G1 / CELL CYCLE AVG G2/M / CELL CYCLE AVG S / sub-G1 %: Mel-P3-Post, 48 hours
Description: as §1

Melanocytes (NHEM) = test: as above; type: cell-based; details: for CELL CYCLE AVG G1 / CELL CYCLE AVG G2/M / CELL CYCLE AVG S / sub-G1 %: Melanocytes (NHEM), 48 hours
Mel-P3-Pre [4] = test: Annexin-V staining per quadrant (flow cytometry); type: cell-based, human; details: 48 hours
Description: as §1

Mel-P3-Post [5] = test: Annexin-V staining per quadrant (flow cytometry); type: cell-based, human; details: 48 hours
Description: as §1

Mel-P1-Pre = test: Sub-G1 analysis of dead cells; type: cell-based, human; details: 48 hours
Description: as §1

Mel-P4-Pre = test: Sub-G1 analysis of dead cells; type: cell-based, human; details: 48 hours
Description: as §1

Mel-P4-Post = test: Sub-G1 analysis of dead cells; type: cell-based, human; details: 48 hours
Description: as §1

Mel-P1-Post = test: Sub-G1 analysis of dead cells; type: cell-based, human; details: 48 hours
Description: as §1

Mel-P3-Post [6] = test: z-VAD-fmk-FITC staining for caspase positive cells; type: cell-based, human; details: 48 hours
Description: as §1

For `COC(=O)N[C@@H](C)CNc1nccc(-c2cn(C(C)C)nc2-c2cc(Cl)cc(NS(C)(=O)=O)c2F)n1` [B-Raf], the Depolarised mitochondria (Mel-P3-Post [1]; B-Raf 5 uM, HDAI 0, 48 hours) was 88, the “cell cycle arrest and apoptosis (in words)” value (melanoma lines) was “potent cell cycle inhibition and cell line-dependent apoptosis; also recorded: potent G1 arrest and cell-line dependent apoptosis” and the “CELL CYCLE AVG G1” value (Mel-P3-Pre [2]; B-Raf 0.1 uM, HDAI 0 nM) was 85. The “CELL CYCLE AVG G2/M” value (Mel-P3-Pre [2]; B-Raf 0.1 uM, HDAI 0 nM) was 6, the “CELL CYCLE AVG S” value (Mel-P3-Pre [2]; B-Raf 0.1 uM, HDAI 0 nM) was 10 and the sub-G1 % (Mel-P3-Pre [2]; B-Raf 0.1 uM, HDAI 0 nM) was 10%. For the same compound, the “CELL CYCLE AVG G1” value (Mel-P3-Pre [2]; B-Raf 1 uM, HDAI 0 nM) was 90, the “CELL CYCLE AVG G2/M” value (Mel-P3-Pre [2]; B-Raf 1 uM, HDAI 0 nM) was 6 and the “CELL CYCLE AVG S” value (Mel-P3-Pre [2]; B-Raf 1 uM, HDAI 0 nM) was 5. The sub-G1 % (Mel-P3-Pre [2]; B-Raf 1 uM, HDAI 0 nM) was 12%, the “CELL CYCLE AVG G1” value (Mel-P3-Pre [2]; B-Raf 10 uM, HDAI 0 nM) was 92 and the “CELL CYCLE AVG G2/M” value (Mel-P3-Pre [2]; B-Raf 10 uM, HDAI 0 nM) was 4. For the same compound, the “CELL CYCLE AVG S” value (Mel-P3-Pre [2]; B-Raf 10 uM, HDAI 0 nM) was 4, the sub-G1 % (Mel-P3-Pre [2]; B-Raf 10 uM, HDAI 0 nM) was 20% and the “G1 arrest (in words)” value (Mel-P3-Pre [2]; Mel-P3 “pre” cell line) was “potent G1 arrest”. The “apoptosis (in words)” value (Mel-P3-Pre [2]; Mel-P3 “pre” cell line) was “low level apoptosis”, the “CELL CYCLE AVG G1” value (Mel-P3-Post [3]; B-Raf 0.1 uM, HDAI 0 nM) was 65 and the “CELL CYCLE AVG G2/M” value (Mel-P3-Post [3]; B-Raf 0.1 uM, HDAI 0 nM) was 12. For the same compound, the “CELL CYCLE AVG S” value (Mel-P3-Post [3]; B-Raf 0.1 uM, HDAI 0 nM) was 23, the sub-G1 % (Mel-P3-Post [3]; B-Raf 0.1 uM, HDAI 0 nM) was 2% and the “CELL CYCLE AVG G1” value (Mel-P3-Post [3]; B-Raf 1 uM, HDAI 0 nM) was 68. For the same compound, the “CELL CYCLE AVG G2/M” value (Mel-P3-Post [3]; B-Raf 1 uM, HDAI 0 nM) was 10, the “CELL CYCLE AVG S” value (Mel-P3-Post [3]; B-Raf 1 uM, HDAI 0 nM) was 22 and the sub-G1 % (Mel-P3-Post [3]; B-Raf 1 uM, HDAI 0 nM) was 2%. The “CELL CYCLE AVG G1” value (Mel-P3-Post [3]; B-Raf 10 uM, HDAI 0 nM) was 72, the “CELL CYCLE AVG G2/M” value (Mel-P3-Post [3]; B-Raf 10 uM, HDAI 0 nM) was 7 and the “CELL CYCLE AVG S” value (Mel-P3-Post [3]; B-Raf 10 uM, HDAI 0 nM) was 21. For the same compound, the sub-G1 % (Mel-P3-Post [3]; B-Raf 10 uM, HDAI 0 nM) was 4%, the “G1 arrest (in words)” value (Mel-P3-Post [3]; Mel-P3 “post” cell line) was “weaker G1 arrest” and the “apoptosis (in words)” value (Mel-P3-Post [3]; Mel-P3 “post” cell line) was “no apoptosis”. The “cell death of melanocytes (in words)” value (Melanocytes (NHEM)) was “did not die”, the “CELL CYCLE AVG G1” value (Melanocytes (NHEM); B-Raf 10 uM, HDAI 0 nM) was 98 and the “CELL CYCLE AVG G2/M” value (Melanocytes (NHEM); B-Raf 10 uM, HDAI 0 nM) was 1. The “CELL CYCLE AVG S” value (Melanocytes (NHEM); B-Raf 10 uM, HDAI 0 nM) was 1, the sub-G1 % (Melanocytes (NHEM); B-Raf 10 uM, HDAI 0 nM) was 3% and the “Annexin Staining per quadrant. Lower Left* (“healthy” cells)” value (Mel-P3-Pre [4]; B-Raf 0.1 uM, HDAI 0 nM) was 88. For the same compound, the “Annexin Staining per quadrant. Lower Right” value (Mel-P3-Pre [4]; B-Raf 0.1 uM, HDAI 0 nM) was 7, the “Annexin Staining per quadrant. Upper Left” value (Mel-P3-Pre [4]; B-Raf 0.1 uM, HDAI 0 nM) was 0 and the “Annexin Staining per quadrant. Upper Right” value (Mel-P3-Pre [4]; B-Raf 0.1 uM, HDAI 0 nM) was 4. The “Annexin Staining per quadrant. Lower Left* (“healthy” cells)” value (Mel-P3-Pre [4]; B-Raf 1 uM, HDAI 0 nM) was 85, the “Annexin Staining per quadrant. Lower Right” value (Mel-P3-Pre [4]; B-Raf 1 uM, HDAI 0 nM) was 8 and the “Annexin Staining per quadrant. Upper Left” value (Mel-P3-Pre [4]; B-Raf 1 uM, HDAI 0 nM) was 0. For the same compound, the “Annexin Staining per quadrant. Upper Right” value (Mel-P3-Pre [4]; B-Raf 1 uM, HDAI 0 nM) was 6, the “Annexin Staining per quadrant. Lower Left* (“healthy” cells)” value (Mel-P3-Pre [4]; B-Raf 10 uM, HDAI 0 nM) was 73 and the “Annexin Staining per quadrant. Lower Right” value (Mel-P3-Pre [4]; B-Raf 10 uM, HDAI 0 nM) was 13. For the same compound, the “Annexin Staining per quadrant. Upper Left” value (Mel-P3-Pre [4]; B-Raf 10 uM, HDAI 0 nM) was 1, the “Annexin Staining per quadrant. Upper Right” value (Mel-P3-Pre [4]; B-Raf 10 uM, HDAI 0 nM) was 13 and the “Annexin Staining per quadrant. Lower Left* (“healthy” cells)” value (Mel-P3-Post [5]; B-Raf 0.1 uM, HDAI 0 nM) was 91. For the same compound, the “Annexin Staining per quadrant. Lower Right” value (Mel-P3-Post [5]; B-Raf 0.1 uM, HDAI 0 nM) was 5, the “Annexin Staining per quadrant. Upper Left” value (Mel-P3-Post [5]; B-Raf 0.1 uM, HDAI 0 nM) was 0 and the “Annexin Staining per quadrant. Upper Right” value (Mel-P3-Post [5]; B-Raf 0.1 uM, HDAI 0 nM) was 4. The “Annexin Staining per quadrant. Lower Left* (“healthy” cells)” value (Mel-P3-Post [5]; B-Raf 1 uM, HDAI 0 nM) was 91, the “Annexin Staining per quadrant. Lower Right” value (Mel-P3-Post [5]; B-Raf 1 uM, HDAI 0 nM) was 5 and the “Annexin Staining per quadrant. Upper Left” value (Mel-P3-Post [5]; B-Raf 1 uM, HDAI 0 nM) was 0. The “Annexin Staining per quadrant. Upper Right” value (Mel-P3-Post [5]; B-Raf 1 uM, HDAI 0 nM) was 4, the “Annexin Staining per quadrant. Lower Left* (“healthy” cells)” value (Mel-P3-Post [5]; B-Raf 10 uM, HDAI 0 nM) was 89 and the “Annexin Staining per quadrant. Lower Right” value (Mel-P3-Post [5]; B-Raf 10 uM, HDAI 0 nM) was 5. The “Annexin Staining per quadrant. Upper Left” value (Mel-P3-Post [5]; B-Raf 10 uM, HDAI 0 nM) was 0, the “Annexin Staining per quadrant. Upper Right” value (Mel-P3-Post [5]; B-Raf 10 uM, HDAI 0 nM) was 6 and the sub-G1 % (Mel-P1-Pre; B-Raf 10 uM, HDAI 0 nM) was 10%. For the same compound, the sub-G1 % (Mel-P4-Pre; B-Raf 10 uM, HDAI 0 nM) was 58%, the sub-G1 % (Mel-P4-Post; B-Raf 10 uM, HDAI 0 nM) was 54% and the sub-G1 % (Mel-P1-Post; B-Raf 10 uM, HDAI 0 nM) was 10%. It also gave a z-VAD-fmk positive (Mel-P3-Post [6]; B-Raf 5 uM, HDAI 0 nM) of 14.
For `Cc1[nH]c2ccccc2c1CCNCc1ccc(/C=C/C(=O)NO)cc1` [HDAI, reference compound], the Depolarised mitochondria (Mel-P3-Post [1]; B-Raf 0 uM, HDAI 30, 48 hours) was 86, the “CELL CYCLE AVG G1” value (Mel-P3-Pre [2]; B-Raf 0 uM, HDAI 30 nM) was 70 and the “CELL CYCLE AVG G2/M” value (Mel-P3-Pre [2]; B-Raf 0 uM, HDAI 30 nM) was 21. For the same compound, the “CELL CYCLE AVG S” value (Mel-P3-Pre [2]; B-Raf 0 uM, HDAI 30 nM) was 9, the sub-G1 % (Mel-P3-Pre [2]; B-Raf 0 uM, HDAI 30 nM) was 17% and the “CELL CYCLE AVG G1” value (Mel-P3-Post [3]; B-Raf 0 uM, HDAI 30 nM) was 69. For the same compound, the “CELL CYCLE AVG G2/M” value (Mel-P3-Post [3]; B-Raf 0 uM, HDAI 30 nM) was 22, the “CELL CYCLE AVG S” value (Mel-P3-Post [3]; B-Raf 0 uM, HDAI 30 nM) was 9 and the sub-G1 % (Mel-P3-Post [3]; B-Raf 0 uM, HDAI 30 nM) was 15%. The “cell death of melanocytes (in words)” value (Melanocytes (NHEM)) was “did not die”, the “CELL CYCLE AVG G1” value (Melanocytes (NHEM); B-Raf 0 uM, HDAI 30 nM) was 88 and the “CELL CYCLE AVG G2/M” value (Melanocytes (NHEM); B-Raf 0 uM, HDAI 30 nM) was 7. The “CELL CYCLE AVG S” value (Melanocytes (NHEM); B-Raf 0 uM, HDAI 30 nM) was 5, the sub-G1 % (Melanocytes (NHEM); B-Raf 0 uM, HDAI 30 nM) was 1% and the “Annexin Staining per quadrant. Lower Left* (“healthy” cells)” value (Mel-P3-Pre [4]; B-Raf 0 uM, HDAI 30 nM) was 85. For the same compound, the “Annexin Staining per quadrant. Lower Right” value (Mel-P3-Pre [4]; B-Raf 0 uM, HDAI 30 nM) was 8, the “Annexin Staining per quadrant. Upper Left” value (Mel-P3-Pre [4]; B-Raf 0 uM, HDAI 30 nM) was 1 and the “Annexin Staining per quadrant. Upper Right” value (Mel-P3-Pre [4]; B-Raf 0 uM, HDAI 30 nM) was 6. For the same compound, the “Annexin Staining per quadrant. Lower Left* (“healthy” cells)” value (Mel-P3-Post [5]; B-Raf 0 uM, HDAI 30 nM) was 83, the “Annexin Staining per quadrant. Lower Right” value (Mel-P3-Post [5]; B-Raf 0 uM, HDAI 30 nM) was 9 and the “Annexin Staining per quadrant. Upper Left” value (Mel-P3-Post [5]; B-Raf 0 uM, HDAI 30 nM) was 0. The “Annexin Staining per quadrant. Upper Right” value (Mel-P3-Post [5]; B-Raf 0 uM, HDAI 30 nM) was 8, the sub-G1 % (Mel-P1-Pre; B-Raf 0 uM, HDAI 30 nM) was 21% and the sub-G1 % (Mel-P4-Pre; B-Raf 0 uM, HDAI 30 nM) was 40%. For the same compound, the sub-G1 % (Mel-P4-Post; B-Raf 0 uM, HDAI 30 nM) was 24%, the sub-G1 % (Mel-P1-Post; B-Raf 0 uM, HDAI 30 nM) was 14% and the z-VAD-fmk positive (Mel-P3-Post [6]; B-Raf 0 uM, HDAI 30 nM) was 23.

From US9717728B2, “Pharmaceutical combination comprising a B-Raf inhibitor and a histone deacetylase inhibitor and their use in the treatment of proliferative diseases” (NOVARTIS AG, priority 2012, dated 2017)
